Test systems include UO-31; 786-0; HT-29; SNB-19; NCI-H23; OVCAR-8; BT-549; HOP-62; ACHN; OVCAR-4; NCI-H226; HOP-92; DU-145; SK-OV-3; HCT-15; TK-10; NCI/ADR-RES; IGROV-1; SK-MEL-5.
Assay in all cases: NCI tumour cell line growth inhibition, 48 h

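Compound exposure: 48 hours, 5 concentrations, 96-well plates. At the GI50, growth is halved.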 The source made the active and inactive calls. Rule as the data show it: active = GI50 up to about 1.1 µM and inactive = higher.

With `O/N=C(\C=N\O)c1ccc2c(c1)Sc1ccccc1O2`, the GI50 with UO-31 was 21.4 µM (inactive); with 786-0 it was 17.5 µM (inactive); in the assay on HT-29, 21.4 µM (inactive); in the assay on SNB-19 it was 24.2 µM (inactive); in the assay on NCI-H23 it was 21.6 µM (inactive); with OVCAR-8, 22.8 µM (inactive). Further, the GI50 is 14.5 µM (inactive) in the assay on BT-549; 17.5 µM (inactive) with HOP-62; 19.9 µM (inactive) with ACHN; 25.1 µM (inactive) in the assay with OVCAR-4; 23.2 µM (inactive) in the assay on NCI-H226; 15.6 µM (inactive) in the assay with HOP-92. Besides, the GI50 with DU-145 is 39.8 µM (inactive); in the assay on SK-OV-3, 18.1 µM (inactive); in the assay on HCT-15 it was 25.9 µM; in the assay with TK-10, 31.4 µM (inactive).

As to `CSc1ccc(NC(=O)CCl)cc1`, the GI50 was 2.23 µM (inactive) in the assay with UO-31; 3.24 µM (inactive) in the assay on NCI/ADR-RES; 6.38 µM (inactive) in the assay on 786-0; 3.65 µM (inactive) with HT-29; 4.86 µM (inactive) in the assay on SNB-19; 9.59 µM (inactive) in the assay on NCI-H23. The GI50 in the assay on OVCAR-8 was 3.51 µM (inactive); in the assay on HOP-62 it was 3.52 µM (inactive); with ACHN, > 10 µM (inactive); in the assay on OVCAR-4, > 10 µM (inactive); in the assay on NCI-H226 it was > 10 µM (inactive); in the assay on HOP-92, 2.63 µM (inactive). Further, the GI50 with DU-145 was > 10 µM (inactive); with IGROV-1 it was 4.73 µM (inactive); in the assay with SK-OV-3, > 10 µM (inactive); in the assay on SK-MEL-5, 2.08 µM (inactive); in the assay on HCT-15, 5.97 µM; in the assay on TK-10 it was > 10 µM (inactive).

In the case of `O=C1C(Cl)=C(NCCCN2CCOCC2)C(=O)c2c(O)ccc(O)c21`, the GI50 was 1.64 µM (inactive) in the assay on UO-31; 2.29 µM (inactive) in the assay on 786-0; 2.75 µM (inactive) in the assay on HT-29; 1.66 µM (inactive) in the assay on SNB-19; 1.75 µM (inactive) with NCI-H23; 3.99 µM (inactive) in the assay on OVCAR-8. The GI50 with BT-549 is 1.64 µM (inactive); in the assay with HOP-62 it was 1.96 µM (inactive); with ACHN, 9.18 µM (inactive); with NCI-H226, 3.54 µM (inactive); in the assay with DU-145 it was 1.6 µM (inactive); with IGROV-1 it was 1.9 µM (inactive). Also, the GI50 with SK-OV-3 is 7.89 µM (inactive); with SK-MEL-5 it was 1.1 µM (active); with HCT-15, 1.26 µM; with TK-10 it was 6.28 µM (inactive).

Turning to `CC1=CCC(C(C)(C)NC(=O)c2ccccc2)C/C1=N/O` (configuration not stated), the GI50 in the assay on UO-31, in the assay on 786-0, with HT-29, with SNB-19, with NCI-H23 and with OVCAR-8 was > 100 µM (inactive) in each case. Also, the GI50 in the assay on BT-549 was > 100 µM (inactive); in the assay with HOP-62, > 100 µM (inactive); with OVCAR-4, > 100 µM (inactive); with HOP-92, 43.3 µM (inactive); in the assay on DU-145 it was > 100 µM (inactive); in the assay on IGROV-1, > 100 µM (inactive). The GI50 is > 100 µM (inactive) in the assay with SK-OV-3, > 100 µM (inactive) in the assay on SK-MEL-5, more than 100 µM in the assay on HCT-15 and > 100 µM (inactive) in the assay with TK-10.

As for `CC(=O)c1sc(=N)n(-c2c(C)cccc2C)c1C`, the GI50 with UO-31, in the assay with NCI/ADR-RES, with 786-0, in the assay with HT-29, in the assay with SNB-19 and in the assay with NCI-H23 was > 100 µM (inactive) throughout. In addition, the GI50 in the assay on BT-549, with HOP-62, in the assay with ACHN, with OVCAR-4, with NCI-H226 and in the assay with DU-145 was > 100 µM (inactive) in each case. Also, the GI50 with IGROV-1 is > 100 µM (inactive); in the assay with SK-OV-3, > 100 µM (inactive); in the assay on SK-MEL-5 it was > 100 µM (inactive); in the assay on HCT-15, more than 100 µM; with TK-10, > 100 µM (inactive).

For the molecule `O=C(/N=N/c1ccc([N+](=O)[O-])cc1)NNc1ccc([N+](=O)[O-])cc1`, the GI50 is 10.9 µM (inactive) in the assay on UO-31; 13.7 µM (inactive) in the assay on 786-0; 31.3 µM (inactive) in the assay on HT-29; 27 µM (inactive) in the assay on SNB-19; 15.5 µM (inactive) in the assay on NCI-H23; 17.2 µM (inactive) with OVCAR-8. For the same molecule, the GI50 in the assay with BT-549 is 15.5 µM (inactive); with HOP-62 it was 13.3 µM (inactive); in the assay on ACHN, 13.5 µM (inactive); in the assay on OVCAR-4, 18.1 µM (inactive); in the assay on NCI-H226 it was 19.5 µM (inactive); with DU-145 it was 5.74 µM (inactive). In addition, the GI50 in the assay on IGROV-1 was 12.8 µM (inactive); in the assay on SK-MEL-5, 13.9 µM (inactive); in the assay on HCT-15, 19.2 µM; with TK-10, 20.1 µM (inactive).

As to `N#CC(C#N)=C1C(=Cc2ccc(OCCCCCCCCCCSSCCCCCCCCCCOc3ccc(C=C4C(=C(C#N)C#N)c5ccccc5C4=C(C#N)C#N)cc3)cc2)C(=C(C#N)C#N)c2ccccc21`, the GI50 in the assay with UO-31 is 18.2 µM (inactive); in the assay on NCI/ADR-RES, 19.3 µM (inactive); in the assay on 786-0 it was 21.8 µM (inactive); with HT-29, 19.2 µM (inactive); with NCI-H23 it was 17.3 µM (inactive); in the assay on OVCAR-8, 31 µM (inactive). For the same molecule, the GI50 with BT-549 is 17 µM (inactive); in the assay with HOP-62, 22.5 µM (inactive); in the assay on ACHN it was 36.7 µM (inactive); in the assay with OVCAR-4, 21.8 µM (inactive); in the assay on NCI-H226, 24 µM (inactive); in the assay with HOP-92 it was 17.7 µM (inactive). Moreover, the GI50 was 22 µM (inactive) with DU-145; 42 µM (inactive) in the assay on IGROV-1; 22.1 µM (inactive) with SK-MEL-5; 16.7 µM in the assay on HCT-15; 47.4 µM (inactive) with TK-10.

As for `CCOc1ccc(N/C(=C(/C(Cl)=C(/Cl)NCCO)[N+](=O)[O-])n2nnc3ccccc32)cc1`, the GI50 with UO-31 is 19.5 µM (inactive); with NCI/ADR-RES, 25.2 µM (inactive); in the assay on 786-0 it was 29.6 µM (inactive); in the assay with HT-29, 29.9 µM (inactive); in the assay with SNB-19 it was 51.1 µM (inactive); in the assay with NCI-H23, 17.5 µM (inactive). The GI50 in the assay with OVCAR-8 is 18.3 µM (inactive); with BT-549, 18.5 µM (inactive); with HOP-62, 66.7 µM (inactive); in the assay with ACHN, 19.5 µM (inactive); in the assay with OVCAR-4, 16.7 µM (inactive); in the assay on NCI-H226 it was > 100 µM (inactive). Moreover, the results for the GI50 in the assay with DU-145, in the assay with SK-OV-3 and in the assay with HCT-15 were 12.9 µM (inactive), 12.8 µM (inactive) and 20.5 µM, respectively.

Regarding `C=Cc1c(C)c(OC)cc2c1Oc1ccc(OC)c(C)c1CC2`, the GI50 was > 100 µM (inactive) in the assay on UO-31; 49.1 µM (inactive) with NCI/ADR-RES; > 100 µM (inactive) in the assay with 786-0; > 100 µM (inactive) in the assay with HT-29; > 100 µM (inactive) in the assay on SNB-19; > 100 µM (inactive) with NCI-H23. The GI50 in the assay with OVCAR-8 was > 100 µM (inactive); with HOP-62 it was > 100 µM (inactive); in the assay with ACHN it was > 100 µM (inactive); with OVCAR-4 it was > 100 µM (inactive); in the assay with NCI-H226, 39.9 µM (inactive); in the assay on HOP-92, > 100 µM (inactive). For the same molecule, the GI50 was > 100 µM (inactive) in the assay on DU-145; > 100 µM (inactive) in the assay with IGROV-1; > 100 µM (inactive) with SK-OV-3; 53.6 µM (inactive) with SK-MEL-5; more than 100 µM with HCT-15; > 100 µM (inactive) in the assay with TK-10.

Take `N/C(=N\O)NCCN1CCCCCCC1`: the GI50 in the assay on UO-31, in the assay on NCI/ADR-RES, in the assay on 786-0, in the assay on HT-29, with SNB-19 and with NCI-H23 was > 100 µM (inactive) throughout. For the same molecule, the GI50 in the assay with OVCAR-8 is 42 µM (inactive); in the assay on HOP-62, > 100 µM (inactive); in the assay on ACHN, 20.1 µM (inactive); in the assay on OVCAR-4 it was > 100 µM (inactive); in the assay on NCI-H226, > 100 µM (inactive); in the assay with HOP-92, > 100 µM (inactive). Besides, the GI50 is > 100 µM (inactive) in the assay with DU-145; 26.7 µM (inactive) with IGROV-1; > 100 µM (inactive) in the assay with SK-OV-3; > 100 µM (inactive) in the assay with SK-MEL-5; more than 100 µM with HCT-15; > 100 µM (inactive) with TK-10.

With `CCCCC(=O)c1c(O)ccc2c(C)cc(=O)oc12`, the GI50 is 24.8 µM (inactive) in the assay with UO-31; 55.7 µM (inactive) in the assay on NCI/ADR-RES; > 100 µM (inactive) in the assay with 786-0; > 100 µM (inactive) in the assay with HT-29; > 100 µM (inactive) in the assay on SNB-19; 99.8 µM (inactive) with NCI-H23. Moreover, the GI50 in the assay with OVCAR-8 is > 100 µM (inactive); with BT-549, 37.6 µM (inactive); in the assay with HOP-62 it was > 100 µM (inactive); in the assay on ACHN, 96.6 µM (inactive); in the assay on OVCAR-4, 69.8 µM (inactive); in the assay on NCI-H226, > 100 µM (inactive). Besides, the GI50 in the assay on HOP-92 was 36.3 µM (inactive); in the assay on DU-145 it was 64.9 µM (inactive); with IGROV-1, 95.5 µM (inactive); in the assay on SK-MEL-5, 53.5 µM (inactive); with HCT-15 it was 50.4 µM; in the assay with TK-10, > 100 µM (inactive).

`Nc1nc(-c2ccccc2)nc2c1[n+]([O-])c1ccccc1[n+]2[O-]`: the GI50 in the assay with UO-31, in the assay with NCI/ADR-RES, with 786-0, in the assay with HT-29, with SNB-19 and in the assay on NCI-H23 was > 100 µM (inactive) each time. The GI50 in the assay on OVCAR-8, in the assay on BT-549, in the assay with HOP-62, in the assay on ACHN, in the assay with NCI-H226 and with DU-145 was > 100 µM (inactive) throughout. The GI50 with IGROV-1 was > 100 µM (inactive); in the assay with SK-OV-3, > 100 µM (inactive); with SK-MEL-5, 83.4 µM (inactive); in the assay on HCT-15, more than 100 µM; in the assay with TK-10, > 100 µM (inactive).
